From patent US11999727B2 (Tango Therapeutics, Inc., priority 2020, dated 2024)
Where two headings read alike, the source gives them in different places.

How the values were obtained:
PRMT5 [1] = molecular target: T1, PRMT5 (Homo sapiens, UniProt O14744); assay: PRMT5 biochemical IC50 assay with MTA as cofactor; settings: PRMT5, MTA as cofactor; read-out: MTA IC50
T1 construct: purchased Viva (custom protein)

PRMT5 [2] = molecular target: T1, PRMT5; assay: PRMT5 biochemical IC50 assay with no cofactor; settings: PRMT5, no cofactor
Description: Table 1 indicates IC50 values (μM) against PRMT5 for exemplary compounds in the presence of SAM as cofactor, with no cofactor, and with MTA as cofactor, respectively (columns 4-6). […] Ki values can be calculated from the IC50 values as described in the Examples section. As detailed in the Examples section, for the assay performed in the presence of SAM, IC50=Ki×1.5 (Ki=IC50/1.5).

[3] = tested on: HAP1 MTAP-deleted cell line; assay: SDMA in-cell western assay, HAP1 MTAP-deleted; assay type: cell-based; settings: for IC50: HAP1 MTAP-deleted; for MTAP intact/deleted ratio: IC50 ratio HAP1 MTAP-intact / HAP1 MTAP-deleted
Procedure, shortened: (§1)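 Isogenic HAP1 pair: the MTAP-intact line expresses endogenous MTAP, and the deleted line is MTAP-null. Symmetric dimethylarginine was detected by in-cell western and IC50 values derived for each line.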

PRMT5 [4] = molecular target: T1, PRMT5; assay: PRMT5 biochemical IC50 assay with SAM as cofactor; settings: PRMT5, SAM as cofactor; read-out: SAM IC50
[5] = tested on: HAP1 MTAP-deleted cell line; assay: Viability assay, MTAP-deleted cell line; assay type: cell-based; settings: MTAP-deleted cell line, read-out: HAP1 MTAP deleted viability
Description: Table 1 additionally indicates IC50 values in a viability assay for the MTAP-deleted cell line (column 10), indicating the effect of treatment with compound on cell survival.

[6] = tested on: HAP1 MTAP-intact cell line; assay: SDMA in-cell western assay, HAP1 MTAP-intact; assay type: cell-based; settings: HAP1 MTAP-intact, read-out: MTAP HAP1 intact IC50
Procedure, shortened: as §1

[7] = read-out: No Cofactor/ rel IC50
[8] = Homo sapiens, HAP1, SDMA in-cell western, read-out: HAP 1 MTAP deleted IC50
[9] = Homo sapiens, HAP1, viability assay
[10] = Homo sapiens, HAP1, SDMA in-cell western
[11] = SDMA in-cell western, read-out: HAP 1 MTAP deleted IC50
[12] = Homo sapiens, HAP1, SDMA in-cell western, read-out: HAP1 MTAP deleted IC50

T1 sequence (O14744 whole entry): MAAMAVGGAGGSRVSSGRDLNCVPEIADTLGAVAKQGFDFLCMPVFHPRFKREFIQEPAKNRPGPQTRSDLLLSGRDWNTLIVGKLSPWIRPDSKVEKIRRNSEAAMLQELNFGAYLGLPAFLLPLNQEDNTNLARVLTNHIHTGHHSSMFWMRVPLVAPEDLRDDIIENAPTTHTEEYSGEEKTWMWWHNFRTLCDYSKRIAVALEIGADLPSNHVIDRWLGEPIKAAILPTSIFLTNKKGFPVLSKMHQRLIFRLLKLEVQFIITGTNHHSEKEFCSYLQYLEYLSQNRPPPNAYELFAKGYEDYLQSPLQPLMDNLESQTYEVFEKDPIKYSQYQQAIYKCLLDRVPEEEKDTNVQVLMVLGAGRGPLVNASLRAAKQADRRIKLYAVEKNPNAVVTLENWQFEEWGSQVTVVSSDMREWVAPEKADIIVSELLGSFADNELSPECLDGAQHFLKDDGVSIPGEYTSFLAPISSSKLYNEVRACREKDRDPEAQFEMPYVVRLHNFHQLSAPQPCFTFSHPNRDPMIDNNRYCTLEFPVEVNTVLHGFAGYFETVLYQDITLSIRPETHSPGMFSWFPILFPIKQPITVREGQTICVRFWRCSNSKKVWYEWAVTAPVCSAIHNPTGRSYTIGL
T1 sequence (Q9BQA1 whole entry partner): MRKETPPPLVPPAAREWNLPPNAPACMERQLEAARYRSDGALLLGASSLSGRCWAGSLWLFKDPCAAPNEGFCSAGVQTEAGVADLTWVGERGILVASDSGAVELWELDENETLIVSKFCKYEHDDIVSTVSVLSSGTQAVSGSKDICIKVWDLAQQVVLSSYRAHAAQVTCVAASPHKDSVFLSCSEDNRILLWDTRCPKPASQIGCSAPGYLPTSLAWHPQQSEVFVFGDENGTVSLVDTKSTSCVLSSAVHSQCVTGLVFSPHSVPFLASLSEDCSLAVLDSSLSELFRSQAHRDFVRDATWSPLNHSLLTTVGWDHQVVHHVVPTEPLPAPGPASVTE

SMILES | IC50 (PRMT5 [1]) [nM] | IC50 (PRMT5 [2]; [7]) [nM] | IC50 [3, 8] [nM] | MTAP intact/deleted ratio ([3]; SDMA in-cell western) | IC50 (PRMT5 [4]) [nM] | IC50 [5, 9] [nM] | IC50 [6, 10] [nM] | IC50 [3, 11] [nM] | IC50 ([5]; viability assay) [nM] | IC50 ([6]; SDMA in-cell western) [nM] | IC50 (PRMT5 [2]; read-out: No Cofactor/rel IC50) [nM] | IC50 [3, 12] [nM]
Cc1cc(NC(=O)C(=O)N2CCCC[C@H]2c2cccnc2)cnc1N (single isomer, unassigned) [Compound 69] | < 50 | 50 to 500 | 100 to 1000 | A (an IC50 ratio greater than or equal to 10 fold) | 50 to 500 | > 10000 | > 1000 | – | – | – | – | –
CC(=O)N1CCC(c2cccc(C3CCCCN3C(=O)C(=O)Nc3cncc(C)c3)c2)CC1 (single isomer, unassigned) [Compound 73] | > 500 | > 500 | > 1000 | C (an IC50 ratio of less than 3 fold) | > 500 | > 10000 | > 1000 | – | – | – | – | –
CC(=O)N1CCC(c2cccc(C3CCCCN3C(=O)C(=O)Nc3cncc(C)c3)c2)CC1 (single isomer, unassigned) [Compound 78] | 50 to 500 | > 500 | – | C (an IC50 ratio of less than 3 fold) | > 500 | – | – | > 1000 | > 10000 | > 1000 | – | –
NC(=O)c1cncc(NC(=O)C(=O)N2CCCC[C@@H]2c2ccccc2)c1 (single isomer, unassigned) [Compound 85] | < 50 | 50 to 500 | 100 to 1000 | A (an IC50 ratio greater than or equal to 10 fold) | 50 to 500 | > 10000 | > 1000 | – | – | – | – | –
Cc1cncc(NC(=O)C(=O)N2C[C@@H](C)CC[C@@H]2c2cccc(Cl)c2)c1 (single isomer, unassigned) [Compound 87] | 50 to 500 | 50 to 500 | > 1000 | C (an IC50 ratio of less than 3 fold) | 50 to 500 | > 10000 | > 1000 | – | – | – | – | –
Cc1cncc(NC(=O)C(=O)N2C[C@H](C)CC[C@H]2c2cccc(Cl)c2)c1 (single isomer, unassigned) [Compound 90] | > 500 | > 500 | > 1000 | C (an IC50 ratio of less than 3 fold) | > 500 | > 10000 | > 1000 | – | – | – | – | –
Cc1cncc(NC(=O)C(=O)N2C[C@H](C)CCC2c2cccc(F)c2)c1 (single isomer, unassigned) [Compound 93] | 50 to 500 | > 500 | > 1000 | C (an IC50 ratio of less than 3 fold) | 50 to 500 | > 10000 | > 1000 | – | – | – | – | –
CC(=O)N1CCC(c2cccc(C3CCCCN3C(=O)C(=O)Nc3cnc(N)c(C)c3)c2)CC1 (single isomer, unassigned) [Compound 94] | < 50 | 50 to 500 | < 100 | B (an IC50 ratio greater than or equal to 3 fold but lower than 10 fold) | 50 to 500 | – | – | – | 1000 to 10000 | 100 to 1000 | – | –
CC(=O)N1CCC(c2cccc(C3CCCCN3C(=O)C(=O)Nc3cnc(N)c(C)c3)c2)CC1 (single isomer, unassigned) [Compound 96] | < 50 | 50 to 500 | – | A (an IC50 ratio greater than or equal to 10 fold) | 50 to 500 | – | – | 100 to 1000 | > 10000 | > 1000 | – | –
NC(=O)c1cncc(NC(=O)C(=O)N2CCCC[C@H]2c2ccccc2)c1 (single isomer, unassigned) [Compound 97] | 50 to 500 | > 500 | > 1000 | C (an IC50 ratio of less than 3 fold) | > 500 | > 10000 | > 1000 | – | – | – | – | –
C[C@H]1CC[C@@H](c2cccnc2)N(C(=O)C(=O)Nc2cncc(C(N)=O)c2)C1 (single isomer, unassigned) [Compound 104] | 50 to 500 | > 500 | > 1000 | B (an IC50 ratio greater than or equal to 3 fold but lower than 10 fold) | 50 to 500 | > 10000 | > 1000 | – | – | – | – | –
C[C@H]1CC[C@H](c2cccnc2)N(C(=O)C(=O)Nc2cncc(C(N)=O)c2)C1 (single isomer, unassigned) [Compound 105] | > 500 | > 500 | > 1000 | C (an IC50 ratio of less than 3 fold) | > 500 | > 10000 | > 1000 | – | – | – | – | –
C[C@@H]1CC[C@@H](c2cccnc2)N(C(=O)C(=O)Nc2cncc(C(N)=O)c2)C1 (single isomer, unassigned) [Compound 106] | < 50 | 50 to 500 | < 100 | A (an IC50 ratio greater than or equal to 10 fold) | < 50 | 1000 to 10000 | > 1000 | – | – | – | – | –
NC(=O)c1cncc(NC(=O)C(=O)N2CCCCC2C2CCCCC2)c1 (single isomer, unassigned) [Compound 108, 5-(2-(2-cyclohexylpiperidin-1-yl)-2-oxoacetamido)nicotinamide] | > 500 | > 500 | – | C (an IC50 ratio of less than 3 fold) | > 500 | – | > 1000 | > 1000 | > 10000 | – | – | –
NC(=O)c1cncc(NC(=O)C(=O)N2CCCCC2C2CCCCC2)c1 (single isomer, unassigned) [Compound 113, 5-(2-(2-cyclohexylpiperidin-1-yl)-2-oxoacetamido)nicotinamide] | < 50 | 50 to 500 | – | A (an IC50 ratio greater than or equal to 10 fold) | 50 to 500 | – | – | < 100 | 1000 to 10000 | > 1000 | – | –
Cc1cc(NC(=O)C(=O)N2C[C@H](C)CC[C@H]2c2cccs2)cnc1N (single isomer, unassigned) [Compound 115] | < 50 | < 50 | < 100 | A (an IC50 ratio greater than or equal to 10 fold) | 50 to 500 | < 1000 | 100 to 1000 | – | – | – | – | –
C[C@H]1CC[C@H](C2CCCCC2)N(C(=O)C(=O)Nc2cncc(C(N)=O)c2)C1 (single isomer, unassigned) [Compound 117] | 50 to 500 | > 500 | 100 to 1000 | A (an IC50 ratio greater than or equal to 10 fold) | > 500 | > 10000 | > 1000 | – | – | – | – | –
C[C@H]1CC[C@@H](C2CCCCC2)N(C(=O)C(=O)Nc2cncc(C(N)=O)c2)C1 (single isomer, unassigned) [Compound 121] | < 50 | 50 to 500 | < 100 | A (an IC50 ratio greater than or equal to 10 fold) | 50 to 500 | 1000 to 10000 | > 1000 | – | – | – | – | –
Cc1cc(NC(=O)C(=O)N2C[C@H]3CC[C@H](C3)[C@H]2c2cccs2)cnc1N (single isomer, unassigned) [Compound 134] | > 500 | > 500 | > 1000 | C (an IC50 ratio of less than 3 fold) | > 500 | > 10000 | > 1000 | – | – | – | – | –
Cc1cc(NC(=O)C(=O)N2C[C@@H]3CC[C@@H](C3)[C@@H]2c2cccs2)cnc1N (single isomer, unassigned) [Compound 137] | < 50 | 50 to 500 | < 100 | A (an IC50 ratio greater than or equal to 10 fold) | 50 to 500 | > 10000 | > 1000 | – | – | – | – | –
Cc1cc(NC(=O)C(=O)N2C[C@H](C)CC[C@H]2C2CCCCC2)cnc1N (single isomer, unassigned) [Compound 148] | < 50 | 50 to 500 | < 100 | A (an IC50 ratio greater than or equal to 10 fold) | 50 to 500 | 1000 to 10000 | 100 to 1000 | – | – | – | – | –
Cc1cc(NC(=O)C(=O)N2CCCC[C@H]2C(C)C)cnc1N (single isomer, unassigned) [Compound 192] | < 50 | – | – | A (an IC50 ratio greater than or equal to 10 fold) | 50 to 500 | > 10000 | > 1000 | – | – | – | 50 to 500 | 100 to 1000
CC1(C)CCC[C@@H]2CN(C(=O)C(=O)Nc3cncc(C(N)=O)c3)CC[C@H]21 (single isomer, unassigned) [Compound 193] | < 50 | – | – | A (an IC50 ratio greater than or equal to 10 fold) | 50 to 500 | 1000 to 10000 | > 1000 | – | – | – | 50 to 500 | < 100
